Source: patent US20240207202A1, “COMBINATION THERAPIES TARGETING MITOCHONDRIAL BIOGENESIS FOR CANCER THERAPY” (The Wistar Institute of Anatomy and Biology, priority 2015, published 2024)

What was measured:
[1] = tested on: BRAF-mutated resistant melanoma cell lines; assay: Induction of apoptosis and cell death by PSVue 643 staining in acquired drug resistant melanoma cell lines; type: cell-based, human
Description: Adherent melanoma cells were harvested with 0.05% Trypsin-EDTA and were washed once with 1×DPBS. Cells were labeled with CellTrace™ Violet according to the manufacturer's protocol and were allowed to adhere to tissue culture plates overnight following the drug treatment. At indicated time points following the drug treatment, floating and adherent cells were pooled, washed with Hank's Buffered Salt Solution (HBSS) and then stained with CellROX Deep Red at 2.5 μM or MitoTracer Red at 0.25 μM for 1 h in a 37° C. humidified incubator supplied with 5% CO2. Cells were then pelleted, washed with DPBS, and stained with PSVue® 643 at 5 μM diluted in TES buffer for 5 min in the dark. Cells were then immediately subjected to FACS analysis using a BD LSR II flow cytometer and at least 5,000 cells per sample were acquired.
Labeling cells with Propidium Iodide and PSVue—Following centrifugation, cells were resuspended in 0.1 ml 1×PBS, co-stained with propidium iodide at 1 μg/ml and PSVue® 643 at 5 μM, and then stained with PSVue® 643 at 5 μM alone. Cell suspensions were kept in the dark at room temperature for 5 min. 0.2 ml 1×PBS supplemented with 10% FBS was added to each cell suspension and cells were immediately analyzed by BD LSRII.
Separation of live cells from dead cells including early apoptotic cells—Based on the fluorescence of PSVue 643, cells are separated into 2 subpopulations, live cells (PSVue 643Neg) and dead cells including early apoptotic cells (PSVue 643Pos).

WM9 melanoma cells = assay: Induction of apoptosis and cell death by PSVue 643 staining in WM9 melanoma cells; type: cell-based, human; settings: WM9, 72 h
Description: Adherent melanoma cells were harvested with 0.05% Trypsin-EDTA and were washed once with 1×DPBS. Cells were labeled with CellTrace™ Violet according to the manufacturer's protocol and were allowed to adhere to tissue culture plates overnight following the drug treatment. […] Cells were then immediately subjected to FACS analysis using a BD LSR II flow cytometer and at least 5,000 cells per sample were acquired.
Cell suspensions were kept in the dark at room temperature for 5 min. 0.2 ml 1×PBS supplemented with 10% FBS was added to each cell suspension and cells were immediately analyzed by BD LSRII.
Briefly, autophagic flux was assessed by FACS analysis of WM9 cells expressing the mCherry-eGFPLC3B construct that were transfected with the indicated siRNAs targeting autophagy and ER stress response and treated for 72 h with DMSO or the combination of PLX4720 at 10 μM and PD0325901 at 1 μM. The data represent the average of 2 biological replicates. […] Autophagic flux was assessed by FACS analysis of WM9 cells expressing the mCherry-eGFPLC3B construct treated for 72 h with Gamitrinib at 1 μM or Spautin-1 at 10 μM in combination with PLX4720 at 10 μM/PD0325901 at 1 μM. Cells treated with DMSO were used as the control for setting up the gate.

Substance: Gamitrinib
- cell death in combination therapy resistant (CR) cell line ([1]; 1 CR cell line (WM9 CR), Gamitrinib 1 and 2.5 μM, 48 h): significantly induced cell death
- resistant cell lines in which apoptosis and cell death was significantly induced ([1]; 23 resistant cell lines, 2.5 μM Gamitrinib, 72 hours): 18 of 23
- BRAF inhibitor resistant (BR) cell lines in which cell death was significantly induced ([1]; BR cell lines, PLX4720 10 μM plus Gamitrinib 2.5 μM, 48 h): 7 out of 9
- induction of apoptosis and cell death (WM9 melanoma cells; Gamitrinib 1 or 2.5 μM vs 0 or 0.5 μM, with PLX4720 10 μM and PD0325901 1 μM): more remarkable induction of apoptosis and cell death
- apoptosis and cell death, compared with other inhibitors of the drug screen (WM9 melanoma cells; titrated doses combined with MAPK pathway inhibitors (PLX4720 10 μM, PD0325901 1 μM)): greater increase in apoptosis and cell death
